Results from ChEMBL document CHEMBL1201862, “PubChem BioAssay data set” (2004).
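48-hour exposure; five concentrations; linearly interpolated endpoints. GI50 marks 50% less growth.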 The source made the active and inactive calls. Rule as the data show it: active = GI50 up to about 1.1 µM and inactive = higher.

Legend:
Assay in all cases: NCI tumour cell line growth inhibition, 48 h
[1] = test system: SK-OV-3
[2] = test system: HCT-15
[3] = test system: A549
[4] = test system: OVCAR-5
[5] = test system: NCI-H522
[6] = test system: HT-29
[7] = test system: Malme-3M
[8] = test system: HCC 2998
[9] = test system: SNB-75
[10] = test system: CCRF-CEM
[11] = test system: OVCAR-4
[12] = test system: IGROV-1
[13] = test system: NCI-H226
[14] = test system: SR
[15] = test system: HOP-62
[16] = test system: KM12
[17] = test system: MOLT-4
[18] = test system: SF-268

Row | SMILES | GI50 [1] | GI50 [2] [µM] | GI50 [3] | GI50 [4] | GI50 [5] | GI50 [6] | GI50 [7] | GI50 [8] | GI50 [9] | GI50 [10] | GI50 [11] | GI50 [12] | GI50 [13] | GI50 [14] | GI50 [15] | GI50 [16] | GI50 [17] | GI50 [18]
1 | O=C(Nc1cccc(C(F)(F)F)c1)C(=O)C(C(=O)c1ccc(Cl)c(Cl)c1)C1OC(=O)c2ccccc21 (stereo not drawn) | > 100 µM (inactive) | 35 | 44.2 µM (inactive) | 62.4 µM (inactive) | 28.8 µM (inactive) | 29.2 µM (inactive) | 15.6 µM (inactive) | 28.5 µM (inactive) | 22.7 µM (inactive) | 28.4 µM (inactive) | 40 µM (inactive) | 39.6 µM (inactive) | 19.9 µM (inactive) | 15.4 µM (inactive) | 28.3 µM (inactive) | 47.2 µM (inactive) | 48.9 µM (inactive) | 37.9 µM (inactive)
2 | O=C(O)c1cc2c3c(c1)[C@H]1C=CC[C@H]1CN3CC1CC=CC21 (stereo partly drawn) | > 100 µM (inactive) | > 100 | > 100 µM (inactive) | > 100 µM (inactive) | > 100 µM (inactive) | > 100 µM (inactive) | > 100 µM (inactive) | > 100 µM (inactive) | > 100 µM (inactive) | > 100 µM (inactive) | > 100 µM (inactive) | > 100 µM (inactive) | > 100 µM (inactive) | > 100 µM (inactive) | > 100 µM (inactive) | > 100 µM (inactive) | > 100 µM (inactive) | > 100 µM (inactive)
3 | CCCCCC1CC(C(C)=O)CN1c1ccc(F)cc1 (stereo not drawn) |  | 52.8 | 51.4 µM (inactive) | > 100 µM (inactive) | 21.2 µM (inactive) | 30.8 µM (inactive) | 54.7 µM (inactive) | 38.1 µM (inactive) | 25.5 µM (inactive) |  |  |  |  | > 10 µM (inactive) |  | 35.6 µM (inactive) |  | 32 µM (inactive)
4 | [N-]=[N+]=CC(=O)c1ccccc1C#CCCc1ccccc1 | 15.1 µM (inactive) | 26.1 | 27.2 µM (inactive) | 50.5 µM (inactive) | 1.05 µM (active) | 16.6 µM (inactive) | 27.4 µM (inactive) | 31.8 µM (inactive) | 15.6 µM (inactive) | 10.9 µM (inactive) | 44.2 µM (inactive) | 36.9 µM (inactive) | 29.4 µM (inactive) | 28.2 µM (inactive) | 31.6 µM (inactive) | 41.2 µM (inactive) | 12.1 µM (inactive) | 
5 | COc1ccc(C23C(=O)c4ccccc4N2O[C@H]2C(=O)N(c4ccccc4)C(=O)[C@H]23)cc1 (stereo partly drawn) | > 100 µM (inactive) | > 100 | > 100 µM (inactive) | > 100 µM (inactive) | 14 µM (inactive) | > 100 µM (inactive) | > 100 µM (inactive) | > 100 µM (inactive) | > 100 µM (inactive) | > 100 µM (inactive) | > 100 µM (inactive) | > 100 µM (inactive) | > 100 µM (inactive) |  | > 100 µM (inactive) | > 100 µM (inactive) | > 100 µM (inactive) | > 100 µM (inactive)
6 | CC1(C)CCc2cc3c(cc2O1)OC(C)(C)CC3=O | > 100 µM (inactive) | 91.8 | 75.2 µM (inactive) | 46.8 µM (inactive) | 2.39 µM (inactive) | 35.6 µM (inactive) |  |  | 70.8 µM (inactive) | 76.6 µM (inactive) | 62.8 µM (inactive) | > 100 µM (inactive) | 34.2 µM (inactive) | 57.5 µM (inactive) | 23.2 µM (inactive) | > 100 µM (inactive) | 46.8 µM (inactive) | > 100 µM (inactive)
7 | COC1=CC(=O)c2ccccc2C1(C)C1=NC(C)(C)CO1 (stereo not drawn) | > 100 µM (inactive) | > 100 | > 100 µM (inactive) |  | > 100 µM (inactive) | > 100 µM (inactive) | > 100 µM (inactive) |  | > 100 µM (inactive) | > 100 µM (inactive) | > 100 µM (inactive) | > 100 µM (inactive) | > 100 µM (inactive) | > 100 µM (inactive) | > 100 µM (inactive) | > 100 µM (inactive) | > 100 µM (inactive) | > 100 µM (inactive)
